The test system of experiment [1] is HEK293. Put plainly: cells. Particulars: Homo sapiens.
The target of experiment [2] is T1, DNA repair protein RAD52 homolog (Homo sapiens, UniProt P43351).
T1 sequence (P43351 whole entry): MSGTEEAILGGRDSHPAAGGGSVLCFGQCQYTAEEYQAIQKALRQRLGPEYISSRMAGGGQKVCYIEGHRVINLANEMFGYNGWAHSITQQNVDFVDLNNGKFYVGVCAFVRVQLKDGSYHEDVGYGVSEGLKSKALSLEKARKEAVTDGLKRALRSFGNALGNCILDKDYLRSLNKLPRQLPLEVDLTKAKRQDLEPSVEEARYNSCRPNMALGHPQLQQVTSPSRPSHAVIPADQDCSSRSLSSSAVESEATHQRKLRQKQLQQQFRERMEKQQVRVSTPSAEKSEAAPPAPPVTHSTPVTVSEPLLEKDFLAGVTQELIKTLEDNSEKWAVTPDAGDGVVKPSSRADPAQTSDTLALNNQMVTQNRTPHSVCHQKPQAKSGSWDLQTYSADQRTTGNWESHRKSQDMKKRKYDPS
Type of experiment: functional, biochemical.

Experiment [3] concerns the target T2, Nuclear receptor subfamily 0 group B member 1 (Homo sapiens, UniProt P51843).
T2 sequence (P51843 whole entry): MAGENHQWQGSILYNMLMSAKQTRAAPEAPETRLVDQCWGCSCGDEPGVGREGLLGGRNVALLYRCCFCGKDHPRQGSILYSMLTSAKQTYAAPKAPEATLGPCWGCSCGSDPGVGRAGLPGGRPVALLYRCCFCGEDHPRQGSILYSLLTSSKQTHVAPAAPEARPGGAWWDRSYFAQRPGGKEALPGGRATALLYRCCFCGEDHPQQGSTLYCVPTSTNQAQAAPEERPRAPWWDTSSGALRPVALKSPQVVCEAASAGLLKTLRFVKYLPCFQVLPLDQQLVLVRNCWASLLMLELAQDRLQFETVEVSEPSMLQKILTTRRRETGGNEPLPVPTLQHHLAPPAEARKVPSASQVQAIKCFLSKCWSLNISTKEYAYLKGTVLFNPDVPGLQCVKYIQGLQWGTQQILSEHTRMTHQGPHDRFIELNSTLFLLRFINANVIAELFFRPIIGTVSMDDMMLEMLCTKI
Nature of the experiment: Luminescence-based cell-based high throughput dose response assay for inhibitors of the orphan nuclear receptor subfamily 0, group B, member 1 (DAX1; NR0B1). [Related pubchem assays (depositor defined):AID504766, AID504790]. Type of experiment: functional.

Experiment [4] has as its system HEK293. Put plainly: cells. Particulars: Homo sapiens. This is another data set of the same source.
For experiment [5], the target named is T3, DNA repair and recombination protein RAD54-like (Homo sapiens, UniProt Q92698).
T3 sequence (Q92698 whole entry): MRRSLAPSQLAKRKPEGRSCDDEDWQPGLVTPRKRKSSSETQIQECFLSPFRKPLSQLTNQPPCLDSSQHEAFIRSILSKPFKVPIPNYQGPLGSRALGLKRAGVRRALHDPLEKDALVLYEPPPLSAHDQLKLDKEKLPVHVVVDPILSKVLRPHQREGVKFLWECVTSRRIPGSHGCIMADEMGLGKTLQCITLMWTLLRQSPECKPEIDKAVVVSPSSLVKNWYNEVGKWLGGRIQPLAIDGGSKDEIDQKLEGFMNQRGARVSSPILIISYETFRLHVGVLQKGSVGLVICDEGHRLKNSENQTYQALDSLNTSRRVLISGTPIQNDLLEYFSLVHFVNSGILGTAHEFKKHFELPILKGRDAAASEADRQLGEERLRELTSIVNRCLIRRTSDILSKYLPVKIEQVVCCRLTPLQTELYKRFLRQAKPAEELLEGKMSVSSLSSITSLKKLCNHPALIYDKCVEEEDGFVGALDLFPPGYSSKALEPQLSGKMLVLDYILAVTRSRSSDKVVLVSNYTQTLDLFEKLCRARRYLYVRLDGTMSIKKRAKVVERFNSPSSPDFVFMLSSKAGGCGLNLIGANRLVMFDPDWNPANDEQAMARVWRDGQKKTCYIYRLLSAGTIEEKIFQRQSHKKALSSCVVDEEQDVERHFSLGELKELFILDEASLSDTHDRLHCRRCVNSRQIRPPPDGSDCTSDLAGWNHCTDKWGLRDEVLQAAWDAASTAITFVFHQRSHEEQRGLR
Put plainly: inhibitors of human RAD54 branch migration, confirmation, biochemical, fluorescence, cherry-picked samples, dose series (AID 651657). The class given is functional.

The test system of experiment [6] is HEK293. Put plainly: cells. Type of experiment: functional, cell-based. Particulars: Homo sapiens.
A short description of experiment [7]: DNA binding of candidate compounds, dose response, artefact control for RAD54 inhibitor project, biochemical, fluorescence polarization, cherry-pick (AID 651673). Type of experiment: functional. On the technique in general: Fluorescence polarisation rises when a labelled molecule tumbles more slowly, as on binding a larger partner.
Experiment [8] is described as follows: cytotoxicity in HEK-293T NF-kB-Luc cells, dose response, cytotoxicity control for B/T-cell NF-kB inhibitor project, cell-based, uHTS hits (AID 489019).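 Note: IC50 reflects cytotoxicity as loss of cell viability.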 Type of experiment: functional.
Experiment [9] in a line: control 3'UTR Renilla luciferase suppression, dose response, counter-screen for Shn3 inhibitor project, cell-based, Clone20-Shn3RL, cherry-picked (AID 624133). Type of experiment: functional. Background: A counterscreen serves to expose hits that act by an unwanted route or on another target.
Experiment [10] relates to INS1. Nature of the experiment: beta cell apoptosis inhibitors, cytokine rescue, dose response, luminescence, retest (AID 449756).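 Note: cell death triggered by IL-1 beta plus TNF-alpha plus IFN-gamma mixture; protective hits raise ATP signal compared with cytokine alone wells.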 Type of experiment: functional, cell-based. To be noted: Rattus norvegicus.
In experiment [11] the test system is Jurkat. Nature of the experiment: antigen receptor-induced NF-kB inhibitors, dose response, Jurkat, luciferase reporter, luminescence, B- and T-cell (AID 489004).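 Note: NF-kB luciferase reporter Jurkat cells stimulated with PMA plus ionomycin.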 Type of experiment: functional, cell-based. To be noted: Homo sapiens. A general note: Reporter assays use an easily measured gene product as a stand-in for the process of interest.
A short description of experiment [12]: cells. Type of experiment: functional, cell-based. Particulars: HEK-CNG.
Experiment [13] can be described thus: HepG2 cell cytotoxicity, dose response, cytotoxicity control for Shn3 inhibitor project, CellTiter-Glo, cherry-picked (AID 624134). The class given is functional, cell-based.
The target in experiment [14] is Galanin receptor type 2 (Homo sapiens, UniProt O43603). Nature of the experiment: Dose Response cell-based high-throughput screening assay to identify antagonists of galanin receptor 2 (GALR2). [Related pubchem assays: 828, 866 ]. The class given is functional.
Galanin receptor type 2, sequence (O43603 whole entry): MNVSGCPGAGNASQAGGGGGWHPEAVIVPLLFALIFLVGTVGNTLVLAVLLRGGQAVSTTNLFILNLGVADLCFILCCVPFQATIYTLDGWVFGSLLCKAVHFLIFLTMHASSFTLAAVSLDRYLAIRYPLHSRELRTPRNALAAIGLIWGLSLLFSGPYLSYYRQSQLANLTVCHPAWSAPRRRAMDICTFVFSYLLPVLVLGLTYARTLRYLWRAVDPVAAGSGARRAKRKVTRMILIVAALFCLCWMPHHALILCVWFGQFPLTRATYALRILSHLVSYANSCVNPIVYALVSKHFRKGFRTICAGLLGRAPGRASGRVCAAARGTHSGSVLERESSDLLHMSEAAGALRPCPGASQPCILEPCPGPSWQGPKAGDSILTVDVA
The target in experiment [15] is Galanin receptor type 3 (Homo sapiens, UniProt O60755). Nature of the experiment: Fluorescence-based cell-based primary high throughput dose response assay to identify antagonists of the Galanin Receptor 3 (GalR3). The class given is functional.
Galanin receptor type 3, sequence (O60755 whole entry): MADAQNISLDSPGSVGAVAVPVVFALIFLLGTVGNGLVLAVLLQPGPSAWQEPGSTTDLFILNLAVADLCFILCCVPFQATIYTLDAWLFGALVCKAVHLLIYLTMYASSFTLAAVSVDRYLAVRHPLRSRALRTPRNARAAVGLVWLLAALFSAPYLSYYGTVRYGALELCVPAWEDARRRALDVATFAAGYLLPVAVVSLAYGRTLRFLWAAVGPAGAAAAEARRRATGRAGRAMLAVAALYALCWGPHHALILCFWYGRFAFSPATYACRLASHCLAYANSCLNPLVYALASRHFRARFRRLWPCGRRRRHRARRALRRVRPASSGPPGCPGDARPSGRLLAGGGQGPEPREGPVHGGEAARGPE
The nature of experiment [16]: Shn3 3'UTR reporter inhibitors, dose response, cell-based, Clone20 osteoblasts, firefly luciferase, cherry-picked (AID 624132).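 Note: firefly luciferase luminescence from reporter carrying the Shn3 3'UTR in osteoblasts.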 The class given is functional.

Active and inactive are the calls of the source.

Regarding `COc1cc2c3c(cccc3c1)C(=O)N(CCN1CCCC1)C2=O`, the EC50 in experiment [1] and in experiment [4] was > 59.7 µM (inactive) each time. The figures for the AC50 in experiment [2], in experiment [5] and in [7] were 5.72 µM (active), 2.16 µM (active) and 37.1 µM (active), respectively. For the same compound, the IC50 in experiment [3] and in experiment [6] was > 67.6 µM (inactive) in each case.

With `COc1ccc(CCNc2c(C)c(C)nc3ncnn23)cc1`, the IC50 (commonly the concentration that inhibits the measured activity by half) was > 80 µM (inactive) in [8], > 80 µM (inactive) in experiment [11], > 42 µM (not active) in experiment [14] and 1.31 µM (active) in experiment [15]. The AC50 (as a rule, the concentration at which the activity in the assay is half-maximal) in experiment [9] was < 260 nM (active); in [10], 2.57 µM (active); in experiment [13], 25.6 µM (active); in experiment [16], 565 nM (active). For the same compound, the EC50 (usually the midpoint of the concentration-response curve) in [12] was > 29.9 µM (inactive).

(Values after ChEMBL document CHEMBL1201862, “PubChem BioAssay data set” (2004).)
